{"source": "patent US10730878B2", "about": "“Fused quinoline compounds as PI3K/mTOR inhibitors” (ADVENCHEN PHARMACEUTICALS, LLC, priority 2015, dated 2020)"}
{"target": "T1, mTor (Homo sapiens, UniProt P42345)", "T1 construct": "purchased Millipore/Merck KGA of Europe (panel screening service)", "assay": "mTor kinase inhibition, % activity at 0.03 μM (kinases panel screening)", "type": "biochemical", "conditions": "0.03 μM compound", "description": "In vitro kinase inhibition activities included Pi3k and mTor activities can be tested with Millipore/Merck KGA of Europe in their kinases panel screening. Animal antitumor activity testing can be conducted by various cancer xenograft models for a compound of formula I. […]", "units": {"mTor % activity @0.03 μM": "%"}}
{"compound": "2-amino-N-(5-{16-[4-(1-cyano-1-methylethyl)phenyl]-8,11,13,14,16-pentaazatetra-cyclo[8.6.0.0^2,^7.0^11,^1^5]hexadeca-1(10), 2,4,6,8,12,14-heptaen-4-yl)}pyridin-2-yl)acetamide", "mTor % activity @0.03 μM": 8}
{"compound": "5-[16-(4-tert-butylphenyl)-12-ethyl-8,11,13,14,16-pentaazatetracyclo[8.6.0.0^2,^7.0^11,^1^5]hexadeca-1(10),2,4,6,8,12,14-heptaen-4-yl]-N-[2-(morpholin-4-yl)ethyl]pyridin-2-amine", "mTor % activity @0.03 μM": 102}
{"compound": "5-[16-(4-tert-butylphenyl)-12-ethyl-8,11,13,14,16-pentaazatetracyclo[8.6.0.0^2,^7.0^11,^1^5]hexadeca-1(10),2,4,6,8,12,14-heptaen-4-yl]-N-[2-(pyrrolidin-1-yl)ethyl]pyridin-2-amine", "mTor % activity @0.03 μM": 84}
{"compound": "5-[16-(4-tert-butylphenyl)-12-ethyl-8,11,13,14,16-pentaazatetracyclo[8.6.0.0^2,^7.0^11,^1^5]hexadeca-1(10),2,4,6,8,12,14-heptaen-4-yl]-N-methylpyridin-2-amine", "mTor % activity @0.03 μM": 51}
{"compound": "CCc1nnc2n(-c3ccc(C(C)(C)C#N)cc3)c3c4cc(-c5cnc6[nH]ccc6c5)ccc4ncc3n12", "note": "[2-[4-(12-ethyl-4-{(1H-pyrrolo[2,3-b]pyridin-5-yl}-8,11,13,14,16-pentaazatetracyclo-[8.6.0.0^2,^7.0^11,^1^5]hexadec-1(10),2,4,6,8,12,14-heptaen-16-yl)phenyl]-2-methylpropanenitrile]", "mTor % activity @0.03 μM": 29}
{"compound": "COc1ccc(-c2ccc3ncc4c(c3c2)n(-c2ccc(C(C)(C)C)cc2)c2nnc(C)n42)cn1", "note": "[2-methoxy-5-pyridine; CH3; CH3, CH3; CH3, 16-(4-tert-butylphenyl)-4-(6-methoxypyridin-3-yl)-12-methyl-8,11,13,14,16-pentaazatetra-cyclo[8.6.0.0^2,^7.0^11,^1^5]hexadeca-1(10), 2,4,6,8,12,14-heptaene]", "mTor % activity @0.03 μM": 97}
{"compound": "C#CC(C)(C)c1ccc(-n2c3c4cc(-c5ccc(OC)nc5)ccc4ncc3n3c(C)nnc23)cc1", "note": "[2-methoxy-5-pyridine; CH3; CH3, CH3; CN, 4-(6-methoxypyridin-3-yl)-12-methyl-16-[4-(2-methylbut-3-yn-2-yl)phenyl]8,11,13,14,16-pentaazatetracyclo[8.6.0.0^2,^7.0^11,^1^5]hexadeca-1(10),2,4,6,8,12,14-heptaene]", "mTor % activity @0.03 μM": 98}
{"compound": "COc1ccc(-c2ccc3ncc4c(c3c2)n(-c2ccc(C(C)(C)C)cc2)c2nncn42)cn1", "note": "[2-methoxy-5-pyridine; H; CH3, CH3; CH3, 16-(4-tert-butylphenyl)-4-(6-methoxypyridin-3-yl)-8,11,13,14,16-pentaazatetracyclo-[8.6.0.0^2,^7.0^11,^1^5]hexadec-1(10),2,4,6,8,12,14-heptaene]", "mTor % activity @0.03 μM": 15}
{"compound": "CC(C)(C#N)c1ccc(-n2c3c4cc(-c5ccnc6[nH]ccc56)ccc4ncc3n3cnnc23)cc1", "note": "[2-methyl-2-[4-(4-{1H-pyrrolo[2,3-b]pyridin-4-yl}-8,11,13,14,16-pentaazatetracyclo-[8.6.0.0^2,^7.0^11,^1^5]hexadeca-1(10),2,4,6,8,12,14-heptaen-16-yl)phenyl]propanenitrile]", "mTor % activity @0.03 μM": 70}
{"compound": "Cc1nnc2n(-c3ccc(C(C)(C)C#N)cc3)c3c4cc(-c5cnc6[nH]ccc6c5)ccc4ncc3n12", "note": "[2-methyl-2-[4-(12-methyl-4-{1H-pyrrolo[2,3-b]pyridin-5-yl}-8,11,13,14,16-pentaazatetra-cyclo[8.6.0.0^2,^7.0^11,^1^5]hexadeca-1(10),2,4,6,8,12,14-heptaen-16-yl)phenyl]propanenitrile]", "mTor % activity @0.03 μM": 15}
{"compound": "Cc1nnc2n(-c3ccc(C(C)(C)C)cc3)c3c4cc(-c5cccnc5)ccc4ncc3n12", "note": "[3-pyridine; CH3; CH3, CH3; CH3, 16-(4-tert-butylphenyl)-12-methyl-4-(pyridin-3-yl)-8,11,13,14,16-pentaazatetracyclo-[8.6.0.0^2,^7.0^11,^1^5]hexadec-1(10),2,4,6,8,12,14-heptaene]", "mTor % activity @0.03 μM": 88}
{"compound": "CC(C)(C)c1ccc(-n2c3c4cc(-c5cccnc5)ccc4ncc3n3cnnc23)cc1", "note": "[3-pyridine; H; CH3, CH3; CH3, 16-(4-tert-butylphenyl)-4-(pyridin-3-yl)-8,11,13,14,16-pentaazatetracyclo[8.6.0.0^2,^7.0^11,^1^5]-hexadeca-1(10), 2,4,6,8,12,14-heptaene]", "mTor % activity @0.03 μM": "−4"}
{"compound": "CC(C)(C)c1ccc(-n2c3c4cc(-c5cnc6ccccc6c5)ccc4ncc3n3cnnc23)cc1", "note": "[3-quinoline; H; CH3, CH3; CH3, 16-(4-tert-butylphenyl)-4-(quinolin-3-yl)-8,11,13,14,16-pentaazatetracyclo[8.6.0.0^2,^7.0^11,^1^5]-hexadeca-1(10), 2,4,6,8,12,14-heptaene]", "mTor % activity @0.03 μM": 22}
{"compound": "C#CC(C)(C)c1ccc(-n2c3c4cc(-c5ccc(N)nc5)ccc4ncc3n3c(CC)nnc23)cc1", "note": "[5-pyridin-2-amine; CH2CH3; CH3, CH3; CN, 5-{12-ethyl-16-[4-(2-methylbut-3-yn-2-yl)phenyl]-8,11,13,14,16-pentaazatetracyclo-[8.6.0.0^2,^7.0^11,^1^5]hexadeca-1(10),2,4,6,8,12,14-heptaen-4-yl}pyridin-2-amine]", "mTor % activity @0.03 μM": 21}
{"compound": "Cc1nnc2n(-c3ccc(C(C)(C)C)cc3)c3c4cc(-c5ccc(N)nc5)ccc4ncc3n12", "note": "[5-pyridin-2-amine; CH3; CH3, CH3; CH3, 5-[16-(4-tert-butylphenyl)-12-methyl-8,11,13,14,16-pentaazatetracyclo[8.6.0.0^2,^7.0^11,^1^5]-hexadeca-1(10), 2,4,6,8,12,14-heptaen-4-yl]pyridin-2-amine]", "mTor % activity @0.03 μM": 34}
{"compound": "Cc1nnc2n(-c3ccc(C(C)(C)C#N)cc3)c3c4cc(-c5ccc(N)nc5)ccc4ncc3n12", "note": "[5-pyridin-2-amine; CH3; CH3, CH3; CN]", "mTor % activity @0.03 μM": 64}
{"compound": "CCc1nnc2n(-c3ccc(C(C)(C)C#N)cc3)c3c4cc(-c5cncnc5)ccc4ncc3n12", "note": "[5-pyrimidine; CH2CH3; CH3, CH3; CN, 2-{4-[12-ethyl-4-(pyrimidin-5-yl)-8,11,13,14,16-pentaazatetracyclo[8.6.0.0^2,^7.0^11,^1^5]-hexadeca-1(10),2,4,6,8,12,14-heptaen-16-yl]phenyl}-2-methylpropanenitrile]", "mTor % activity @0.03 μM": 94}
{"compound": "Cc1nnc2n(-c3ccc(C(C)(C)C)cc3)c3c4cc(-c5cncnc5)ccc4ncc3n12", "note": "[5-pyrimidine; CH3; CH3, CH3; CH3, 16-(4-tert-butylphenyl)-12-methyl-4-(pyrimidin-5-yl)-8,11,13,14,16-pentaazatetracyclo-[8.6.0.0^2,^7.0^11,^1^5]hexadeca-1(10), 2,4,6,8,12,14-heptaene]", "mTor % activity @0.03 μM": 104}
{"compound": "Cc1nnc2n(-c3ccc(C(C)(C)C#N)cc3)c3c4cc(-c5cncnc5)ccc4ncc3n12", "note": "[5-pyrimidine; CH3; CH3, CH3; CN, 2-methyl-2-{4-[12-methyl-4-(pyrimidin-5-yl)-8,11,13,14,16-pentaazatetracyclo-[8.6.0.0^2,^7.0^11,^1^5]hexadeca-1(10),2,4,6,8,12,14-heptaen-16-yl]phenyl}propanenitrile]", "mTor % activity @0.03 μM": 90}
